Consider seven compounds from patent publication US4876260A, “Oxathiolanes” (State of Israel, Israel Institute of Biological Research, priority 1988, dated 1989).

Data set [1] concerns the target T1, M1 muscarinic receptors (3H-PZ sites, frontal cortex) (Rattus norvegicus, UniProt P08482).
T1 sequence (P08482 1-460): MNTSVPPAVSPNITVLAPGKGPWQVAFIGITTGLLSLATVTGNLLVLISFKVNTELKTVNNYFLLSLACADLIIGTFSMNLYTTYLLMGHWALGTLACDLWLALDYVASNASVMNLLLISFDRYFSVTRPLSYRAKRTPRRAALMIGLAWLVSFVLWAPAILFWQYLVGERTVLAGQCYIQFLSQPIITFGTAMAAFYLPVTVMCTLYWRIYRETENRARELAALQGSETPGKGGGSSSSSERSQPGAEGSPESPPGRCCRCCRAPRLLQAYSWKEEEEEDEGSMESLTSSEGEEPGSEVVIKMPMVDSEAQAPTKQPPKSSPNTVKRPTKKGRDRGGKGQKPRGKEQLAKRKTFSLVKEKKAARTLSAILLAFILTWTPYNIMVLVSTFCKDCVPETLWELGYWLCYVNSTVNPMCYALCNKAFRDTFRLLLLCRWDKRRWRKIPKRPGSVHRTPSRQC
The experiment in a line: Displacement of 3H-PZ from rat frontal cortex homogenate. Format: binding. The following applies: for Ki: (a') frontal cortex, read-out: Ki(3H-PZ); for a':c', Ki(3H-PZ):Ki(3H-CD): (g) frontal cortex ratio.

The next data set has as its system mice. The experiment in a line: Pharmacodynamic profile and general toxicity in mice. The class given is in vivo, CD-1 mice. The protocol:
Male white mice of the CD-1 strain supplied by Charles River Ltd. (U.K.) were used throughout. An acclimatization period of at least three days was allowed between arrival and commencement of a particular experimental series. The animals were fed a complete commercial pelleted rodent diet without restriction during the acclimatization and study periods. Animals had free access to tap water. Body weights during testing were mostly within 20-28 g.
Test materials were prepared as aqueous solutions in physiological saline (0.9% NaCl), up to a maximum concentration of 10 mg./ml. All materials were freshly prepared on the morning prior to each dosing session. Dosages were expressed gravimetrically (mg./kg.), in terms of the materials as received.
Groups of mice (mostly n=5) received either i.v. or oral administration of the test materials at various dose levels. Dose volumes appropriate for respective dose levels selected, were determined for each animal according to body weights on the day of dosing. Any behavioral changes occurring during one to two hours after administration, as well as incidence of death up to 24 hours after dosing were recorded.

Data set [2] deals with T2, M1 muscarinic receptors (3H-PZ sites, forebrain) (Rattus norvegicus, UniProt P08482).
T2 sequence (P08482 1-460): T1 sequence (P08482 1-460)
The experiment in a line: Displacement of 3H-Pirenzepine (3H-PZ, selective M1 antagonist) from rat forebrain homogenate. The class given is binding. The following applies: for Ki: (a) forebrain. (In a radioligand displacement assay an active substance lowers the binding of a labelled ligand.)

Data set [3] concerns muscarinic receptors (3H-QNB sites, cerebellum, mainly M2). The experiment in a line: biochemical. The following applies: for a:b": (h) Ki(3H-PZ) forebrain : Ki(3H-QNB) cerebellum; for b:b": (j) Ki(3H-QNB) forebrain : Ki(3H-QNB) cerebellum. Format: binding, rat.
The subject of data set [4] is isolated guinea-pig ileum. The experiment in a line: Contraction of isolated guinea-pig ileum preparation. The text has this:
From this Table, it appears that compounds (III) were not so effective in contracting the guinea pig ileum preparation.

Where [5] appears, read: 50 mg/kg i.v., listed as (+)-III AF122A.
Setting [6] is: 100 mg/kg i.v., immed = immediately.
Where [7] appears, read: 200 mg/kg p.o., listed as (+)-III AF122A.
The mark [8] stands for this setting: 25 mg/kg i.v., listed as (-)-III AF122A.
[9] abbreviates: 50 mg/kg i.v., listed as (-)-III AF122A.
Setting [10] is: 200 mg/kg p.o., listed as (-)-III AF122A.
Where [11] appears, read: 10 mg/kg i.v., listed as (-)-III AF122B.
[12] abbreviates: 25 mg/kg i.v., listed as (-)-III AF122B.
The mark [13] stands for this setting: 50 mg/kg i.v., listed as (-)-III AF122B.
The mark [14] stands for this setting: 200 mg/kg p.o., listed as (-)-III AF122B.

Molecules are shown by their SMILES.

The term Ki denotes a dissociation constant, usually derived from enzyme kinetics or from competition with a known ligand.

`CC1OCC2(CN3CCC2CC3)S1` (single isomer, unassigned) [compound 13, 2-methylspiro(1,3-oxathiolan-4,3')quinuclidine]: the inhibition constant (Ki) in data set [1] turned out to be 4210 ± 470 nM. For the same compound, the “Mortality, No. dead/total treated” value is 0/5 with mice (10 mg/kg i.v., listed as (+)-III AF122A); 0/5 with mice (25 mg/kg i.v., listed as (+)-III AF122A); 4/5 with mice (setting [5]); 0/5 in the data set with mice (50 mg/kg p.o.); 1/1 in the data set with mice (100 mg/kg i.v., listed as (+)-III AF122A); 0/5 with mice (100 mg/kg p.o., listed as (+)-III AF122A). In the data set on mice (setting [7]), the “Mortality, No. dead/total treated” value is given as 0/5. Also, in the data set on mice (50 mg/kg i.v.), the “Exophthalmus, No. affected/total treated” value is 3/5. Besides, the “Convulsive seizures, No. affected/total treated” value in the data set with mice (setting [5]) is 5/5. Moreover, the figures for the “Mortality, time after drug administration” value (shortened to “Mortality, time”) in the data set on mice (setting [5]) and with mice (setting [6]) were 30 s and “immed”, respectively. In the data set on mice (setting [5]), the “Tremors, No. affected/total treated” value was 4/5. Moreover, the Altered motor activity result in the data set on mice (setting [7]) is given as “a+h”.

With `C[C@H]1O[C@]2(CS1)CN1CCC2CC1` (relative stereo) [compound 4, 2-methylspiro(1,3-oxathiolan-5,3')quinuclidine], in data set [2], the “a:b, Ki(3H-PZ):Ki(3H-QNB)” value is 0.14 and the Ki came to 1000 ± 400 nM. In data set [1], the “a':b', Ki(3H-PZ):Ki(3H-QNB)” value stood at 0.13; the Ki came out at 960 ± 50 nM; the “a':c', Ki(3H-PZ):Ki(3H-CD)” value amounted to 2.5. Further, in data set [3], the “a:b"” value was determined as 0.07 and the “b:b"” value came to 0.47. Besides, the “a':b"” value in data set [3] ((i) Ki(3H-PZ) frontal cortex : Ki(3H-QNB) cerebellum) is 0.1. In addition, in data set [3] ((k) Ki(3H-QNB) frontal cortex : Ki(3H-QNB) cerebellum), the “b':b"” value is 0.39. Further, the “Agonist type (remarks)” value in data set [4] is “Full agonist”.

With `CC1OCC2(CN3CCC2CC3)S1` (single isomer, unassigned) [compound 12, 2-methylspiro(1,3-oxathiolan-4,3')quinuclidine], in data set [1], the Ki amounted to 350 ± 40 nM. Moreover, the “Mortality, No. dead/total treated” value with mice (10 mg/kg i.v., listed as (-)-III AF122A) is recorded as 0/5; with mice (setting [8]) it was 1/5; with mice (setting [9]), 1/1; in the data set with mice (100 mg/kg i.v., listed as (-)-III AF122A) it was 1/1; in the data set with mice (100 mg/kg p.o., listed as (-)-III AF122A), 0/5; with mice (setting [10]) it was 1/5. Also, the “Exophthalmus, No. affected/total treated” value in the data set on mice (25 mg/kg i.v.) is 4/5. Further, the “Convulsive seizures, No. affected/total treated” value with mice (setting [8]) is on record as 1/5; in the data set with mice (setting [9]), 1/1; with mice (setting [10]), 1/5. In addition, the “Mortality, time” value is listed as 10 s in the data set with mice (setting [8]); 10 s in the data set on mice (setting [9]); “immed” in the data set on mice (setting [6]); 10 m with mice (200 mg/kg p.o., m = minutes, listed as (-)-III AF122A). Further, the “Respiratory distress, No. affected/total treated” value in the data set on mice (setting [8]) was 4/5; in the data set on mice (setting [10]) it was 3/5. The “Tremors, No. affected/total treated” value was 4/5 with mice (setting [8]), 1/1 in the data set with mice (setting [9]) and 3/5 in the data set with mice (200 mg/kg p.o.). Besides, the “Vocalization, No. affected/total treated” value with mice (setting [10]) is 2/5.

Turning to `C[C@H]1O[C@]2(CS1)CN1CCC2CC1` (single isomer, unassigned) [Compound #5, 2-methylspiro(1,3-oxathiolan-5,3')quinuclidine], in data set [2], the “a:b, Ki(3H-PZ):Ki(3H-QNB)” value was determined as 0.3 and the affinity, expressed as Ki, was 1100 ± 300 nM. Also, in data set [1], the Ki was 410 ± 80 nM and the “a':c', Ki(3H-PZ):Ki(3H-CD)” value was found to be 2.1. For the same compound, in data set [3], the “a:b"” value was determined as 0.14 and the “b:b"” value is recorded as 0.47.

On to `C[C@@H]1O[C@]2(CS1)CN1CCC2CC1` (relative stereo) [compound 3, 2-methylspiro(1,3-oxathiolan-5,3')quinuclidine], for which, in data set [2], the “a:b, Ki(3H-PZ):Ki(3H-QNB)” value was 0.59 and the Ki worked out at 14600 ± 2900 nM. Also, in data set [3], the “a:b"” value is listed as 0.52 and the “b:b"” value was 0.88.

`C[C@H]1O[C@]2(CS1)CN1CCC2CC1` (single isomer, unassigned) [compound 6, 2-methylspiro(1,3-oxathiolan-5,3')quinuclidine]: in data set [2], the “a:b, Ki(3H-PZ):Ki(3H-QNB)” value stood at 0.20 and the inhibitory constant (Ki) amounted to 9600 ± 1800 nM. Besides, in data set [1], the Ki turned out to be 4630 ± 420 nM and the “a':c', Ki(3H-PZ):Ki(3H-CD)” value amounted to 0.6. In data set [3], the “a:b"” value worked out at 0.1 and the “b:b"” value worked out at 0.48.

Turning to `CC1OCC2(CN3CCC2CC3)S1` (single isomer, unassigned) [compound 9, 2-methylspiro(1,3-oxathiolan-4,3')quinuclidine], the Ki in data set [1] was 12100 nM. Further, the “Contraction of guinea pig ileum (in words)” value in data set [4] (listed as (-)-AF122B) is reported as “inconsistent contractile response: sometimes at high concentrations it induced contractions, whereas at other times it did not”. The results for the “Analgesia (nonresponsiveness to tail pinch), No. affected/total treated” value in the data set with mice (setting [11]), in the data set on mice (25 mg/kg i.v.) and in the data set with mice (setting [14]) were 3/5, 5/5 and 3/4, respectively. The “Mortality, No. dead/total treated” value with mice (setting [11]) was 0/5; in the data set on mice (setting [12]), 0/5; with mice (setting [13]), 2/2; in the data set on mice (100 mg/kg i.v., listed as (-)-III AF122B), 2/2; in the data set on mice (100 mg/kg p.o., listed as (-)-III AF122B) it was 1/5; with mice (setting [14]), 4/4. In addition, the “Vocalization, No. affected/total treated” value in the data set on mice (25 mg/kg i.v.) is given as 1/5; in the data set with mice (setting [14]) it was 2/4. For the same compound, the Altered motor activity result in the data set on mice (setting [12]) and with mice (50 mg/kg p.o.) was “a+h” in each case. Also, the “Convulsive seizures, No. affected/total treated” value in the data set with mice (setting [12]) is 3/5; in the data set on mice (setting [13]), 2/2; in the data set on mice (100 mg/kg p.o.), 2/5; in the data set on mice (setting [14]), 4/4. Besides, the “Respiratory distress, No. affected/total treated” value in the data set on mice (setting [12]) was 2/5; with mice (100 mg/kg p.o.) it was 1/5; with mice (setting [14]) it was 3/5. The “Tremors, No. affected/total treated” value with mice (setting [12]) is on record as 3/5; with mice (100 mg/kg p.o.) it was 1/5. In addition, the “Mortality, time” value with mice (setting [13]) is reported as 5 s; with mice (setting [6]), “immed”; in the data set on mice (200 mg/kg p.o., m = minutes, listed as (-)-III AF122B), 20 m.
